Here are results for 17 compounds from patent US20200131669A1, “CYCLIC PEPTIDE COMPOUND HAVING HIGH MEMBRANE PERMEABILITY, AND LIBRARY CONTAINING SAME” (Chugai Seiyaku Kabushiki Kaisha, priority 2017, published 2020).

The structures appear in SMILES notation. Starred links: 1 amine or outer side, 2 acyl side, 3 side chain; linkers in the order of their positions; H or OH if unused. Positions of bridges follow the written chain, without caps; N, C: chain ends. Non-standard residues stand in square brackets, D forms with d. Residues, ends and D or L forms follow the SMILES beside them. *: point of attachment. Tyr(3-F) = N[C@@H](Cc1ccc(O)c(F)c1)C(=O)O; NMeW = CN[C@@H](Cc1c[nH]c2ccccc12)C(=O)O; NMeF = CN[C@@H](Cc1ccccc1)C(=O)O; NMeGABA = CN(CCCC(=O)[*:2])[*:1]; NMeI = CC[C@H](C)[C@H](NC)C(=O)O; NMeL = CN[C@@H](CC(C)C)C(=O)O; NMeV = CN[C@H](C(=O)O)C(C)C; NMeA = CN[C@@H](C)C(=O)O; Piperidide = C1CCN(*)CC1; Sar = CNCC(=O)O; tBu = CC(C)(C)*

A short description of this data set: Caco-2 membrane permeability, improved method as used in the following Examples (96-well, 20 to 24 h preincubation). Format: in vitro ADME. The following applies: human, Caco-2, Caco-2 (cm/sec). The protocol: In the following Examples, membrane permeability was measured in accordance with the improved method established as described above. Specifically, Caco-2 cells were cultured on a 96-well Transwell for three weeks, after which DMEM+FaSSIF (1% DMSO)+compound were added to the apical side and DMEM was added to the basal side, and the cells were preincubated at 5% CO2, 37° C., and 80 rpm for 20 to 24 hours. Following the preincubation, measurement of membrane permeability was initiated by removing the preincubation solution on the apical and basal sides by suction, washing the membrane, and adding FaSSIF/HBSS buffer (1% DMSO) (pH 6.0) containing the compound to the apical side and HBSS buffer (4% BSA) (pH 7.4) to the basal side. Each well was shaken at 5% CO2, 37° C., and 80 rpm, and 180 minutes after the initiation, the sample on the basal side was collected and the permeation amount was measured by LC/MS. The membrane permeability coefficient (Papp) was calculated from the permeation amount. Herein, the terms “Caco-2 (cm/sec)” in the columns in the tables and “Papp (cm/sec)” are used in the same meaning.
(Caco-2 cells form a polarised layer with tight junctions and transporters.)
As for `CC[C@H](C)[C@H]1C(=O)N[C@@H]([C@@H](C)O)C(=O)N(C)CC(=O)N(C)[C@@H](CC(C)C)C(=O)N[C@H](C(=O)N2CCCCC2)CC(=O)N(C)[C@@H](CC(C)C)C(=O)N[C@@H](CC(C)C)C(=O)N(C)[C@@H](CC(C)C)C(=O)N(C)[C@@H](Cc2c[nH]c3ccccc23)C(=O)N[C@@H](CC(C)C)C(=O)N(C)[C@@H](Cc2ccccc2)C(=O)N1C` [pd111] ([NMeL]L[NMeL][NMeW]L[NMeF][NMeI]T[Sar][NMeL]D-Piperidide; lactam N-11), the Papp A→B (commonly how fast a substance crosses the layer from the apical side) at 180 min is 0.16 ×10⁻⁶ cm/s.

`CC[C@H](C)[C@@H]1NC(=O)[C@H](Cc2ccccc2)N(C)C(=O)[C@@H](C)NC(=O)C[C@@H](C(=O)N2CCCCC2)NC(=O)[C@H](CC(C)C)N(C)C(=O)[C@H](C)N(C)C(=O)[C@H](COC(C)(C)C)NC(=O)[C@H](C)N(C)C(=O)CN(C)C(=O)[C@H](Cc2ccc(O)cc2)NC(=O)[C@H](CC(C)C)N(C)C1=O` [pd112] ([dA][NMeF]I[NMeL]Y[Sar][NMeA]S(tBu)[NMeA][NMeL]D-Piperidide; lactam N-11) had a Papp A→B at 180 min of 0.11 ×10⁻⁶ cm/s.

As to `CC(C)C[C@@H]1NC(=O)[C@H](CC(C)C)N(C)C(=O)[C@H](C)N(C)C(=O)[C@@H](C(C)C)NC(=O)C[C@@H](C(=O)N2CCCCC2)NC(=O)[C@H]([C@@H](C)O)NC(=O)[C@H](C)N(C)C(=O)[C@H](C)N(C)C(=O)[C@H](CC(C)C)N(C)C(=O)[C@H](Cc2ccc(O)c(F)c2)NC(=O)[C@H](Cc2ccccc2)N(C)C1=O` [pd113] ([dV][NMeA][NMeL]L[NMeF][Tyr(3-F)][NMeL][NMeA][NMeA]TD-Piperidide; lactam N-11), the apical-to-basolateral permeability (Papp A→B) at 180 min came to 0.029 ×10⁻⁶ cm/s.

In turn, `CC(C)C[C@H]1C(=O)N[C@H](C(=O)N2CCCCC2)CC(=O)N(C)CCCC(=O)N(C)[C@@H](CC(C)C)C(=O)N[C@@H](Cc2ccc(O)c(F)c2)C(=O)N(C)[C@@H](CC(C)C)C(=O)N(C)[C@@H](Cc2ccccc2)C(=O)N[C@@H](COC(C)(C)C)C(=O)N(C)[C@@H](CC(C)C)C(=O)N[C@@H]([C@@H](C)O)C(=O)N(C)CC(=O)N1C` [pd114] ([NMeGABA][NMeL][Tyr(3-F)][NMeL][NMeF]S(tBu)[NMeL]T[Sar][NMeL]D-Piperidide; lactam N-11) registered a Papp A→B at 180 min of 0.17 ×10⁻⁶ cm/s.

With `CC[C@H](C)[C@H]1C(=O)N[C@@H](Cc2ccc(O)cc2)C(=O)N(C)CC(=O)N(C)[C@@H](CC(C)C)C(=O)N[C@H](C(=O)N2CCCCC2)CC(=O)N(C)[C@@H](C)C(=O)N[C@@H](CC(C)C)C(=O)N(C)[C@@H](C)C(=O)N(C)[C@@H](Cc2ccccc2)C(=O)N[C@@H](C(C)C)C(=O)N(C)[C@@H](C)C(=O)N1C` [pd116] ([NMeA]L[NMeA][NMeF]V[NMeA][NMeI]Y[Sar][NMeL]D-Piperidide; lactam N-11), the Papp A→B at 180 min worked out at 0.14 ×10⁻⁶ cm/s.

The compound `CC[C@H](C)[C@@H]1NC(=O)[C@H](CC(C)C)N(C)C(=O)[C@@H](C)NC(=O)C[C@@H](C(=O)N2CCCCC2)NC(=O)[C@H](C(C)C)N(C)C(=O)[C@H](Cc2ccccc2)N(C)C(=O)[C@H](COC(C)(C)C)NC(=O)[C@H](CC(C)C)N(C)C(=O)CN(C)C(=O)[C@H](Cc2ccc(O)cc2)NC(=O)[C@H](C)N(C)C1=O` [pd117] ([dA][NMeL]I[NMeA]Y[Sar][NMeL]S(tBu)[NMeF][NMeV]D-Piperidide; lactam N-11) had a Papp A→B at 180 min of 0.56 ×10⁻⁶ cm/s.

In turn, `CC(C)C[C@H]1NC(=O)C[C@@H](C(=O)N2CCCCC2)NC(=O)[C@H](C)N(C)C(=O)[C@H](CC(C)C)N(C)C(=O)[C@H](COC(C)(C)C)NC(=O)[C@H](CC(C)C)N(C)C(=O)CN(C)C(=O)[C@H]([C@@H](C)O)NC(=O)[C@H](CC(C)C)N(C)C(=O)[C@H](Cc2ccc(O)c(F)c2)NC(=O)[C@H](Cc2ccccc2)N(C)C1=O` [pd118] ([dL][NMeF][Tyr(3-F)][NMeL]T[Sar][NMeL]S(tBu)[NMeL][NMeA]D-Piperidide; lactam N-11) gave a Papp A→B at 180 min of 0.2 ×10⁻⁶ cm/s.

For `CC[C@H](C)[C@@H]1NC(=O)[C@H](CC(C)C)N(C)C(=O)CCCN(C)C(=O)C[C@@H](C(=O)N2CCCCC2)NC(=O)[C@H](CC(C)C)N(C)C(=O)[C@H](C)N(C)C(=O)[C@H]([C@@H](C)O)NC(=O)[C@H](CC(C)C)N(C)C(=O)[C@H](Cc2ccc(O)c(F)c2)NC(=O)[C@H](CC(C)C)N(C)C(=O)[C@H](Cc2ccccc2)N(C)C1=O` [pd119] ([NMeGABA][NMeL]I[NMeF][NMeL][Tyr(3-F)][NMeL]T[NMeA][NMeL]D-Piperidide; lactam N-11), the apical-to-basolateral permeability (Papp A→B) at 180 min is 0.16 ×10⁻⁶ cm/s.

For the compound `CC(C)C[C@@H]1NC(=O)[C@H](C)N(C)C(=O)C[C@@H](C(=O)N2CCCCC2)NC(=O)[C@H](CC(C)C)N(C)C(=O)CN(C)C(=O)[C@H](Cc2ccc(O)c(F)c2)NC(=O)[C@H](CC(C)C)N(C)C(=O)[C@H](C)N(C)C(=O)[C@H](C)NC(=O)[C@H](Cc2ccccc2)N(C)C(=O)[C@H](CC(C)C)N(C)C1=O` [pd120] ([NMeA]L[NMeL][NMeF]A[NMeA][NMeL][Tyr(3-F)][Sar][NMeL]D-Piperidide; lactam N-11), the apical-to-basolateral permeability (Papp A→B) at 180 min worked out at 0.23 ×10⁻⁶ cm/s.

`CC(C)C[C@H]1C(=O)N[C@@H](COC(C)(C)C)C(=O)N(C)[C@@H](Cc2ccccc2)C(=O)N(C)[C@@H](C(C)C)C(=O)N[C@H](C(=O)N2CCCCC2)CC(=O)N[C@H](C(C)C)C(=O)N(C)[C@@H](C)C(=O)N[C@@H](C(C)C)C(=O)N(C)[C@@H](CC(C)C)C(=O)N[C@@H](Cc2ccc(O)cc2)C(=O)N(C)CC(=O)N1C` [pd121] ([dV][NMeA]V[NMeL]Y[Sar][NMeL]S(tBu)[NMeF][NMeV]D-Piperidide; lactam N-11) displayed a Papp A→B at 180 min of 1 ×10⁻⁶ cm/s.

As to `CC(C)C[C@H]1C(=O)N[C@H](C(=O)N2CCCCC2)CC(=O)N(C)[C@@H](C)C(=O)N[C@@H](Cc2ccc(O)c(F)c2)C(=O)N(C)[C@@H](CC(C)C)C(=O)N(C)[C@@H](CC(C)C)C(=O)N[C@@H](C(C)C)C(=O)N(C)[C@@H](Cc2ccccc2)C(=O)N(C)[C@@H](CC(C)C)C(=O)N[C@@H]([C@@H](C)O)C(=O)N(C)CC(=O)N1C` [pd122] ([NMeA][Tyr(3-F)][NMeL][NMeL]V[NMeF][NMeL]T[Sar][NMeL]D-Piperidide; lactam N-11), the Papp A→B at 180 min turned out to be 0.46 ×10⁻⁶ cm/s.

`CC[C@H](C)[C@@H]1NC(=O)[C@H](CC(C)C)N(C)C(=O)[C@@H](C)NC(=O)C[C@@H](C(=O)N2CCCCC2)NC(=O)[C@H](C)N(C)C(=O)[C@H](Cc2ccccc2)N(C)C(=O)[C@H](COC(C)(C)C)NC(=O)[C@H](CC(C)C)N(C)C(=O)CN(C)C(=O)[C@H](Cc2ccc(O)c(F)c2)NC(=O)[C@H](CC(C)C)N(C)C1=O` [pd124] ([dA][NMeL]I[NMeL][Tyr(3-F)][Sar][NMeL]S(tBu)[NMeF][NMeA]D-Piperidide; lactam N-11) returned a Papp A→B at 180 min of 0.32 ×10⁻⁶ cm/s.

The compound `CC[C@H](C)[C@@H]1NC(=O)[C@H](C(C)C)N(C)C(=O)CCCN(C)C(=O)C[C@@H](C(=O)N2CCCCC2)NC(=O)[C@H](CC(C)C)N(C)C(=O)[C@H](C)N(C)C(=O)[C@H](Cc2ccc(O)cc2)NC(=O)[C@H](CC(C)C)N(C)C(=O)[C@H](COC(C)(C)C)NC(=O)[C@H](Cc2ccccc2)N(C)C(=O)[C@H](CC(C)C)N(C)C1=O` [pd125] ([NMeGABA][NMeV]I[NMeL][NMeF]S(tBu)[NMeL]Y[NMeA][NMeL]D-Piperidide; lactam N-11) displayed an apparent permeability from apical to basolateral (Papp A→B) at 180 min of 0.45 ×10⁻⁶ cm/s.

On to `CC[C@H](C)[C@H]1C(=O)N[C@@H](Cc2ccc(O)cc2)C(=O)N(C)CC(=O)N(C)[C@@H](CC(C)C)C(=O)N[C@H](C(=O)N2CCCCC2)CC(=O)N(C)[C@@H](C)C(=O)N[C@@H](C(C)C)C(=O)N(C)[C@@H](CC(C)C)C(=O)N(C)[C@@H](CC(C)C)C(=O)N[C@@H](C)C(=O)N(C)[C@@H](Cc2ccccc2)C(=O)N1C` [pd126] ([NMeA]V[NMeL][NMeL]A[NMeF][NMeI]Y[Sar][NMeL]D-Piperidide; lactam N-11), for which the Papp A→B at 180 min stood at 0.42 ×10⁻⁶ cm/s.

The compound `CC(C)C[C@@H]1NC(=O)[C@H](Cc2ccccc2)N(C)C(=O)[C@@H](C(C)C)NC(=O)C[C@@H](C(=O)N2CCCCC2)NC(=O)[C@H](C)N(C)C(=O)[C@H](CC(C)C)N(C)C(=O)[C@H](COC(C)(C)C)NC(=O)[C@H](CC(C)C)N(C)C(=O)CN(C)C(=O)[C@H](Cc2ccc(O)cc2)NC(=O)[C@H](CC(C)C)N(C)C1=O` [pd127] ([dV][NMeF]L[NMeL]Y[Sar][NMeL]S(tBu)[NMeL][NMeA]D-Piperidide; lactam N-11) registered an apparent permeability from apical to basolateral (Papp A→B) at 180 min of 0.13 ×10⁻⁶ cm/s.

Take `CC(C)C[C@@H]1NC(=O)[C@H](Cc2ccccc2)N(C)C(=O)[C@@H](C(C)C)NC(=O)C[C@@H](C(=O)N2CCCCC2)NC(=O)[C@H](CC(C)C)N(C)C(=O)[C@H](CC(C)C)N(C)C(=O)[C@H](Cc2ccc(O)c(F)c2)NC(=O)[C@H](CC(C)C)N(C)C(=O)CN(C)C(=O)[C@H]([C@@H](C)O)NC(=O)[C@H](CC(C)C)N(C)C1=O` [pd128] ([dV][NMeF]L[NMeL]T[Sar][NMeL][Tyr(3-F)][NMeL][NMeL]D-Piperidide; lactam N-11): the Papp A→B at 180 min worked out at 0.17 ×10⁻⁶ cm/s.

In the case of `CC[C@H](C)[C@@H]1NC(=O)[C@H](CC(C)C)N(C)C(=O)CCCN(C)C(=O)C[C@@H](C(=O)N2CCCCC2)NC(=O)[C@H](CC(C)C)N(C)C(=O)[C@H](C)N(C)C(=O)[C@H](Cc2ccc(O)cc2)NC(=O)[C@H](CC(C)C)N(C)C(=O)[C@H](COC(C)(C)C)NC(=O)[C@H](CC(C)C)N(C)C(=O)[C@H](Cc2ccccc2)N(C)C1=O` [pd129] ([NMeGABA][NMeL]I[NMeF][NMeL]S(tBu)[NMeL]Y[NMeA][NMeL]D-Piperidide; lactam N-11), the apparent permeability from apical to basolateral (Papp A→B) at 180 min turned out to be 0.16 ×10⁻⁶ cm/s.
